{"source": "paper PMC8599359", "about": "(Molecular Neurobiology, 2021)", "key": {"MMP-2": {"target": "T1, MMP-2 (Homo sapiens, UniProt P08253)", "T1 sequence (P08253 110-660)": "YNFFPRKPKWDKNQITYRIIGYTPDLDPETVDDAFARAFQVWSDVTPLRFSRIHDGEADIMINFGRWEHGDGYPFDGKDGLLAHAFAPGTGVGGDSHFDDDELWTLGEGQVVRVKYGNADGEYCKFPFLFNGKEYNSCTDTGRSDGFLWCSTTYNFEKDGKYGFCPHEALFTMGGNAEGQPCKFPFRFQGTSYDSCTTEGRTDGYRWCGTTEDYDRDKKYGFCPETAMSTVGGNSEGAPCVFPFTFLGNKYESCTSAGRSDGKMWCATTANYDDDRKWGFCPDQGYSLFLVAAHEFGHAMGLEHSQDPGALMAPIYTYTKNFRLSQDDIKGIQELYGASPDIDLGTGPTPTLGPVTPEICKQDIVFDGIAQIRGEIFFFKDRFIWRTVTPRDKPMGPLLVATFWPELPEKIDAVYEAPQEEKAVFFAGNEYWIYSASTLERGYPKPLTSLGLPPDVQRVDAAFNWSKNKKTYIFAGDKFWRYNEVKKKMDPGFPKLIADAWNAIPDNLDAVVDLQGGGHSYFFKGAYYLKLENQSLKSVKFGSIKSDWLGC", "assay": "Fluorometric substrate assay (MMP inhibitor profiling kit)", "type": "biochemical", "parameters": "purchased Enzo life sciences BML-AK308", "protocol": "(§1) Kit contained a panel of ten MMPs and a quenched fluorogenic substrate OMNIMMP® RED. Composition of a quenched fluorogenic substrate was TQ3-GABA-Pro-Cha-Abu-Smc-His-Ala-Dab(6’-TAMRA)-Ala-Lys-NH2 [TQ3 = quencher; GABA = 4-aminobutyric acid; Cha = L-cyclohexylalanine; Abu = 2-aminobutyric acid; Smc = S-methyl-L-cysteine; Dab = 2,4-diaminobutyric acid; 6’-TAMRA = 6’-tetramethylrhodamine]. Experiment was performed as per instructions provided in the manufacturer’s manual. The assays were performed in a 96-well, black, flat, microplate format. The compound NNGH was provided as a prototypic control inhibitor. […] Untreated MMPs were used as control. The experiment was performed in biological triplicates. After 60-min incubation, fluorogenic substrate OMNIMMP® RED was added to each reaction/well to start the reaction. The plate was continuously read at Ex/Em = 545/576 nm (cutoff at 570 nm) for 30 min with 1-min time intervals at constant temperature, 37 °C, using Molecular Devices SpectraMax M3 plate reader with SoftMax Pro 6.2 software."}, "MMP-9": {"target": "MMP-9 (Homo sapiens, UniProt P14780)", "sequence (P14780 94-707)": "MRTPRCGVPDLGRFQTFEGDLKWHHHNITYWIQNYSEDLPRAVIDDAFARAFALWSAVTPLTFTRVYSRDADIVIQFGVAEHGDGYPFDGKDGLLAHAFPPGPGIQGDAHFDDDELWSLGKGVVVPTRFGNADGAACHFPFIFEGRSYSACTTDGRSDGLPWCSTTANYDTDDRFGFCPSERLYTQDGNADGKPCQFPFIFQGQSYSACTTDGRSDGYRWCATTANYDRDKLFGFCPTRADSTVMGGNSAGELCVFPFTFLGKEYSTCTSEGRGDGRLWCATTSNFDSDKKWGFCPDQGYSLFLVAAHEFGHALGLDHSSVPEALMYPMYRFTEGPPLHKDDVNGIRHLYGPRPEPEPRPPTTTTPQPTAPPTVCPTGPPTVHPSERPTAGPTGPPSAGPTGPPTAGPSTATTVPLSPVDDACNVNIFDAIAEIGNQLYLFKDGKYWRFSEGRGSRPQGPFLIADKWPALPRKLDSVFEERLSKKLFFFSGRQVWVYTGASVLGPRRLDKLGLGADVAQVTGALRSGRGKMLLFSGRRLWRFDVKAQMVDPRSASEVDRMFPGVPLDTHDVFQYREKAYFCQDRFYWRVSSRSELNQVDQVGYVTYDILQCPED", "assay": "Fluorometric substrate assay (MMP inhibitor profiling kit)", "type": "biochemical", "parameters": "purchased Enzo life sciences BML-AK308", "protocol": "as §1"}, "[1]": {"system": "C3H/HeJ mice pups, hippocampus", "assay": "Magnetic resonance spectroscopy (1H MRS) of pups", "type": "in vivo, mouse", "protocol": "After DTI measurements, the same animals were scanned by ^1H MRS to measure metabolite concentrations. N-Acetylaspartate (NAA), total choline (tCho), and total creatine (tCre) were measured in HI region. Animals from both groups, DTG and control, were scanned. SemiLASER localization with timing parameters (TE/TR = 40/4000 ms, 576 averages, 2048 points) was used to obtain MRS data. Voxel was located on HI. All first- and second-order shim terms were automatically adjusted using MAPSHIM® (Bruker, Billerica, MA). A final shim performed manually, if necessary, to achieve a water line width of 10–15 Hz. The water signal was suppressed by variable power radiofrequency (RF) pulses with optimized relaxation delays (VAPOR). MRS data were quantified using LCModel (LCMODEL Inc., CA). Results were expressed as a percentage of the sum of all 3 metabolites as a semi-quantitative method for reporting metabolite concentrations in institutional units (I.U.). Glycerophosphocholine and phosphocholine were added and reported as total choline-containing compounds."}, "[2]": {"assay": "PK and BD of DTG during pregnancy", "type": "in vivo, mouse", "conditions": "for Kp: C3H/HeJ, mouse, oral, 50 mg/kg", "excerpt": "Drug administration was started at the day of plug detection (GD 0.5) and continued up to the day of birth of pups. Blood samples were collected from dams into heparinized tubes by cheek puncture (submandibular vein) using a 5-mm lancet (MEDIpoint, Inc., Mineola, NY) at GD 8.5 and 16.5 and postnatal days (PND) 4, 12, and 21 for plasma collection. […] Each sample (plasma or tissue) evaluated for DTG levels was randomly selected from distinct litters.\nDTG was purchased from BOC Sciences (Shirley, NY). […]\nPK and BD of DTG during pregnancy\nDTG levels were quantitated in plasma, and tissue homogenates by ultraperformance liquid chromatography tandem mass spectrometry (UPLC-MS/MS). […]\nml of acetonitrile (ACN) and 10 µl of internal standard (IS) solution were added to 2 5 µl of plasma.\nDTG-d3 at a final concentration of 50 ng/m l ser ved as the IS. Samples were vortexed and centrifuged at 17,000×g for 10 min at 4 °C. Supernatants were dried using a speed- vac and reconstituted in 100 µl 50% (v/v) ACN in water. The samples were vortexed and centrifuged at […]\nanalysis, 50– 200 mg of tissue (placenta, fetal brain) was homogenized in 9 volumes of 90% (v/v) methanol (MeOH) in water using a Qiagen TissueLyzer II (Valencia, CA). Subsequently, 280 µl o f MeOH, 10 µl of 80% (v/v) MeOH in water, and 10 µl IS were added to 100 µl of tissue homogenate.\nSamples were then vortexed, left for 5 min on ice and centrifuged at 17,000 × g and 4 °C for 15 min. Twenty µl of supernatant was mixed with 80 µl of 50% (v/v) ACN in water. The samples were centrifuged at 17,000 × g at 4 °C f or 10 m in and the supernatant was used for analysis. Standard"}}}
{"smiles": "C[C@@H]1CCO[C@H]2Cn3cc(C(=O)NCc4ccc(F)cc4F)c(=O)c(O)c3C(=O)N12", "note": "[DTG, Dolutegravir]", "values": [{"measurement": "inhibitory effect compared to doxycycline", "setting": "MMP-2; MMP-2, 20 µM", "value": "higher inhibitory effect"}, {"measurement": "IC50", "setting": "MMP-2; human recombinant MMP-2, 60 min preincubation, four-parameter fit", "value": 16.9, "unit": "µM"}, {"measurement": "inhibitory effect compared to doxycycline", "setting": "MMP-9; MMP-9, 20 µM", "value": "higher inhibitory effect"}, {"measurement": "IC50", "setting": "MMP-9; human recombinant MMP-9, 60 min preincubation, four-parameter fit", "value": 11.1, "unit": "µM"}, {"measurement": "NAA levels in hippocampus vs control", "setting": "[1]; PND 28-34, all pups", "value": "significantly reduced"}, {"measurement": "tCho levels in hippocampus vs control", "setting": "[1]; PND 28-34, all pups", "value": "significant increase"}, {"measurement": "tCre (internal reference) in hippocampus vs control", "setting": "[1]; PND 28-34, all pups", "value": "No differences"}, {"measurement": "NAA in hippocampus vs control", "setting": "[1]; female pups", "value": "significantly reduced"}, {"measurement": "plasma drug levels in pregnant dams relative to maximal DTG concentration (Cmax) in human plasma at therapeutic doses", "setting": "[2]; 50 mg/kg daily", "value": 10, "unit": "×"}, {"measurement": "Kp", "setting": "[2]; embryo brain / dam plasma, GD 16.5", "value": 0.024}, {"measurement": "Kp", "setting": "[2]; pup brain / dam plasma, PND 4", "value": 0.038}, {"measurement": "DTG concentration in plasma of dams", "setting": "[2]; GD 8.5, 50 mg/kg daily oral gavage from GD 0.5", "value": "38,628.63 ± 4855.53 ng/mL"}, {"measurement": "ratio of embryo brain DTG levels to placenta DTG levels", "setting": "[2]; GD 16.5", "value": 0.18}, {"measurement": "DTG concentration in placental tissue", "setting": "[2]; GD 16.5, 50 mg/kg daily oral", "value": "3528.04 ± 316.56", "unit": "ng/g"}, {"measurement": "DTG concentration in plasma of dams", "setting": "[2]; GD 16.5, 50 mg/kg daily oral gavage from GD 0.5", "value": "27,296.3 ± 2701.15 ng/mL"}, {"measurement": "DTG concentration in embryonic brain tissue", "setting": "[2]; GD 16.5, 50 mg/kg daily oral to dam", "value": "663.6 ± 75.13", "unit": "ng/g"}, {"measurement": "DTG concentration in brain tissue of pups", "setting": "[2]; PND 4", "value": "48.1 ± 2.35", "unit": "ng/g"}, {"measurement": "DTG concentration in plasma of dams", "setting": "[2]; PND 4, dosing stopped at birth of pups", "value": "1244.2 ± 623.20", "unit": "ng/mL"}, {"measurement": "DTG concentration in plasma of dams", "setting": "[2]; PND 12, dosing stopped at birth of pups", "value": "48.95 ± 7.39", "unit": "ng/mL"}, {"measurement": "DTG concentration in plasma of dams", "setting": "[2]; PND 21, dosing stopped at birth of pups", "value": "21.97 ± 2.42", "unit": "ng/mL"}, {"measurement": "DTG level in pup's brain predicted from dam plasma/embryo brain ratio (detection limit)", "setting": "[2]; PND 28, after cessation of dosing at birth", "value": "< 0.1", "unit": "ng/g"}, {"measurement": "Kp", "setting": "[2]; female, placenta / dam plasma, GD 16.5", "value": 0.12}]}
